Source: US6489098B1, “Means and methods for monitoring nucleoside reverse transcriptase inhibitor antiretroviral therapy and guiding therapeutic decisions in the treatment of HIV/AIDS” (ViroLogic, Inc., priority 1998, dated 2002)
“And” between values parts separate entries of the source, which are not always exact repeats. Equal values may be shown once. “Also recorded” adds a separate entry of the source.

Tests used:
Assay type in all cases: cell-based
[1] = test system: HIV-1 RT mutant resistance test vector A62V+T69SSA; assay: Phenotypic susceptibility assay, site directed RTV A62V+T69SSA; conditions: for Average fold reduction in susceptibility: RTV with 62 + 69 (A62V+T69SSA), 4 replicates; for effect on susceptibility (words): RTV with A62V+T69SSA, compared with T69SSA alone
Method: (§1) Resistance tests were carried out with resistance test vectors using two host cell types. Resistance test vector viral particles were produced by a first host cell (the resistance test vector host cell) that was prepared by transfecting a packaging host cell with the resistance test vector and the packaging expression vector. The resistance test vector viral particles were then used to infect a second host cell (the target host cell) in which the expression of the indicator gene is measured.
(§2) The resistance test vectors containing a functional luciferase gene cassette were constructed and host cells were transfected with the resistance test vector DNA. The resistant test vectors contained patient-derived reverse transcriptase and protease sequences that were either susceptible or resistant to the antiretroviral agents, such as nucleoside reverse transcriptase inhibitors, non-nucleoside reverse transcriptase inhibitors and protease inhibitors. The resistance test vector viral particles produced by transfecting the resistance test vector DNA into host cells, either in the presence or absence of protease inhibitors, were used to infect target host cells grown either in the absence of NRTI or NNRTI or In the presence of increasing concentrations of the drug. The amount of luciferase activIty produced in infected target host cells in the presence of drug was compared to the amount of luciferase produced in infected target host cells in the absence of drug. Drug resistance was measured as the amount of drug required to inhibit by 50% the luciferase activity detected in the absence of drug (Inhibitory concentration 50%, IC50). The IC50 values were determined by plotting percent drug inhibition vs. log 10 drug concentration.
(§3) Host cells were seeded in 10-cm-diameter dishes and were transfected several days after plating with resistance test vector plasmid DNA and the envelope expression vector. Transfections were performed using a calcium-phosphate precipitation procedure. The cell culture media containing the DNA precipitate was replaced with fresh medium, from one to 24 hours, after transfection. Cell culture media containing resistance test vector viral particles was harvested one to four days after transfection and was passed through a […] filter before being stored at −80° C. HIV capsid protein (p24) levels in the harvested cell culture media were determined by an EIA method as described by the manufacturer (SIAC; Frederick, Md.). Before infection, target cells (293 and 293/T) were plated in cell culture media. Control infections were performed using cell culture media from mock transfections (no DNA) or transfections containing the resistance test vector plasmid DNA without the envelope expression plasmid. One to three or more days after infectIon the media was removed and cell lysis buffer (Promega) was added to each well. Cell lysates were assayed for luciferase activity (FIG. 3). The inhibitory effect of the drug was determined using the following equation:
(§4) % luciferase inhibition=1−(RLUluc[drug]÷RLUluc)×100
(§5) where RLUluc [drug] is the relative light unit of luciferase activity in infected cells in the presence of drug and RLUluc is the Relative Light Unit of luciferase activity in infected cells in the absence of drug. IC50 values were obtained from the sigmoidal curves that were generated from the data by plotting the percent inhibition of luciferase activity vs. the log 10 drug concentration. The drug inhibition curves are shown in (FIG. 3).
(§6) Genotypic changes that are observed to correlate with changes in phenotypic patterns of drug susceptibility are evaluated by construction of resistance test vectors containing the specific mutation on a defined, wild-type (drug susceptible) genetic background. Mutations may be incorporated alone and/or in combination with other known drug resistance mutations that are thought to modulate the susceptibility of HIV to a certain drug or class of drugs. […]

[2] = test system: HIV-1 RT mutant resistance test vector 41 + 69 + 184 + 215; assay: Phenotypic susceptibility assay, site directed RTV 41 + 69 + 184 + 215; conditions: RTV with 41 + 69 + 184 + 215; 2 replicates
Method: as §1, §2, §3, §4, §5, §6

[3] = test system: HIV-1 RT mutant resistance test vector A62V-T69SSA-L74V-RTV; assay: Phenotypic susceptibility assay, site directed RTV A62V-T69SSA-L74V; conditions: for Average fold reduction in susceptibility: RTV with 62 + 69 + 74V, 1 replicate
Method: as §1, §2
as §3, with “Cell lysates were assayed for luciferase activity (FIG. 3).” left out
as §4
as §5, with “The drug inhibition curves are shown in (FIG. 3).” left out

[4] = test system: HIV-1 RT mutant resistance test vector Q151M-RTV; assay: Phenotypic susceptibility assay, site directed RTV Q151M; conditions: for effect on susceptibility (words): RTV with Q151M vs wild type RTV
Method: as §1, §2, §3
% luciferase inhibition=1−(RLUluc[drug]÷RLUluc)×100 […]
Genotypic changes that are observed to correlate with changes in phenotypic patterns of drug susceptibility are evaluated by construction of resistance test vectors containing the specific mutation on a defined, wild-type (drug susceptible) genetic background. […]

[5] = test system: HIV-1 RT mutant resistance test vector 41 + 62 + 69 + 75S + 210 + 215; assay: Phenotypic susceptibility assay, site directed RTV 41 + 62 + 69 + 75S + 210 + 215; conditions: RTV with 41 + 62 + 69 + 75S + 210 + 215; 1 replicate
Method: as §1, §2, §3, §4, §5, §6

[6] = test system: HIV-1 RT mutant resistance test vector M41L+A62V+T69SSA+M184V+T215Y; assay: Phenotypic susceptibility assay, site directed RTV M41L+A62V+T69SSA+M184V+T215Y; conditions: for Average fold reduction in susceptibility: RTV with 41 + 62 + 69 + 184 + 215, 2 replicates; for effect on susceptibility (words): RTV with M41L+A62V+T69SSA+M184V+T215Y, addition of M184V to the 4 mutations
Method: as §1, §2, §3, §4, §5, §6

Row | Compound | Average fold reduction in susceptibility [1] | effect on susceptibility (words) [1] | Average fold reduction in susceptibility [2] [fold] | Average fold reduction in susceptibility [3] | fold reduction in susceptibility ([4]; RTV with Q151M vs control RTV) | effect on susceptibility (words) [4] | Average fold reduction in susceptibility [5] [fold] | Average fold reduction in susceptibility [6] [fold] | effect on susceptibility (words) [6] | effect on susceptibility (words) ([3]; L74V introduced with A62V+T69SSA)
1 | Cc1cn([C@H]2C=C[C@@H](CO)O2)c(=O)[nH]c1=O [d4T, stavudine] | 1.66 fold | no effect on the susceptibility to d4T; also recorded: did not reduce d4T susceptibility more than the T69SSA mutation alone | 2.32 | 1.5 fold and 1.50 fold | approximately three-fold | less susceptible to d4T than the wild type control RTV; also recorded: reduced d4T and AZT susceptibility | 14.13 | 3.98 | no effect on the susceptibility to d4T; also recorded: did reduce d4T susceptibility more than the T69SSA mutation alone; also recorded: more susceptible | –
2 | O=c1[nH]cnc2c1ncn2[C@H]1CC[C@@H](CO)O1 [ddI, didanosine] | 1.54 fold | – | 2.28 | – | – | Significant changes in susceptibility | 5.12 | 2.55 | more susceptible | –
3 | Cc1cn([C@H]2C[C@H](N=[N+]=[N-])[C@@H](CO)O2)c(=O)[nH]c1=O [AZT, zidovudine] | 6 fold and 7 fold and approximately six-fold and 6.87 fold | further reduce AZT susceptibility | 5.87 | – | – | Significant changes in susceptibility; also recorded: reduced d4T and AZT susceptibility | >1000 | 43.86 | increase in the susceptibility to AZT; also recorded: suppressed the reduced AZT susceptibility; also recorded: more susceptible | shift of the susceptibility back to wild-type
4 | Nc1ccn([C@H]2CC[C@@H](CO)O2)c(=O)n1 [ddC, zalcitabine] | 1.74 fold | – | 3.48 | 1.8 fold and 1.80 fold | – | Significant changes in susceptibility | 2.58 | 2.90 | no effect on susceptibility to ddC or abacavir | –
5 | Nc1nc(NC2CC2)c2ncn([C@H]3C=C[C@@H](CO)C3)c2n1 [ABC, abacavir] | 2.71 fold | – | 11.56 | – | – | – | 14.21 | 11.73 | no effect on susceptibility to ddC or abacavir | –
